In assay [1] the target is T1, CSF1R (human) (Homo sapiens, UniProt P07333).
T1 construct: made in house; host or cells: T7 phage display or HEK-293 cells (alternatives, not resolved per kinase)
Kind of assay: Competition binding assay, CSF1R (human) Kd. How it is done:
(§1) The liganded beads were blocked with excess biotin and washed with blocking buffer (SeaBlock (Pierce), 1% BSA, 0.05% Tween 20, 1 mM DTT) to remove unbound ligand and to reduce non-specific binding. […] Test compounds were prepared as 100× stocks in DMSO and diluted into the aqueous environment. Kds were determined using an eleven point threefold serial dilutions. DMSO or control compounds were was added to control assays lacking a test compound. […] The kinase concentration in the eluates was measured by quantitative PCR.

The target of assay [2] is T2, CSF1R (mouse) (Mus musculus, UniProt P09581).
T2 construct: made in house; host or cells: T7 phage display or HEK-293 cells (alternatives, not resolved per kinase)
T2 sequence (P09581 20-977): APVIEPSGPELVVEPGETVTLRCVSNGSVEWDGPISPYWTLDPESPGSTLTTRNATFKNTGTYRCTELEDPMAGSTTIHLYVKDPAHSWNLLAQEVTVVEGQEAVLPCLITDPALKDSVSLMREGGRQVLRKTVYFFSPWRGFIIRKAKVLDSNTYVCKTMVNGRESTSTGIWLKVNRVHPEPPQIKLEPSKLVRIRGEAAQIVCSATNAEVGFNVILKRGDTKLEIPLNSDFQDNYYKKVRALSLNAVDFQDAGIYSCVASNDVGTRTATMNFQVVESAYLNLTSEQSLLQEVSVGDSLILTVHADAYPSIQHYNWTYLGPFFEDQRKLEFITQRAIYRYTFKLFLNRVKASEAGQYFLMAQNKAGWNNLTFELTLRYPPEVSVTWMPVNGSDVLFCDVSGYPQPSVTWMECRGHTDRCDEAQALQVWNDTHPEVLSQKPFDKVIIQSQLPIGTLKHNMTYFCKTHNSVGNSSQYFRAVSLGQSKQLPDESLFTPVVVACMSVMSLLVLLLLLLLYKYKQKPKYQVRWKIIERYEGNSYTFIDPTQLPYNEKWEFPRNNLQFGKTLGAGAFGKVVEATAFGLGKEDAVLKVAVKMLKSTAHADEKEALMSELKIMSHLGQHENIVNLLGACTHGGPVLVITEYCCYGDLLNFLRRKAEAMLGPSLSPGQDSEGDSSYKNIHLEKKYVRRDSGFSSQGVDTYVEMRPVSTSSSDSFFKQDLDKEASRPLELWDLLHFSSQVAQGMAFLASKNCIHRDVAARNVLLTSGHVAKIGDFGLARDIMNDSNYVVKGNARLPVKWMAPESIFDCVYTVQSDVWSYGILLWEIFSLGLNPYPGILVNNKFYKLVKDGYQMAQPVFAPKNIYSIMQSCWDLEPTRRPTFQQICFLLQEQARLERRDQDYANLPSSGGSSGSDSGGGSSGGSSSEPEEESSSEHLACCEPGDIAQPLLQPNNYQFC
Kind of assay: Competition binding assay, CSF1R (mouse) Kd. How it is done:
as §1

Assay [3] concerns M-NFS-60 cells. Nature of the assay: M-NFS-60 cell proliferation assay. Particulars: Mus musculus; 72 hours incubation, Alamar Blue, M-CSF-dependent cells; read-out: CSF1R Cell Proliferation (M-NFS-60) IC50. It counts as cell-based, mouse. How it is done:
In certain embodiments, the compounds disclosed herein are tested in an M-NFS-60 cell proliferation assay to determine their cellular potency against CSF-1R. M-NFS-60s are mouse monocytic cells that depend on the binding of the ligand M-CSF to its receptor, CSF-1R, to proliferate Inhibition of CSF-1R kinase activity will cause reduced growth and/or cell death. This assay assesses the potency of compounds as CSF-1R inhibitors by measuring the reduction of Alamar Blue reagent by viable cells. An exemplary assay is described in the Examples section.
The compounds disclosed herein were tested in an M-NFS-60 cell proliferation assay to determine their cellular potency against CSF1R. M-NFS-60s are mouse monocytic cells that depend on the binding of the ligand M-CSF to its receptor, CSF1R, to proliferate Inhibition of CSF1R kinase activity will cause reduced growth and/or cell death. This assay assesses the potency of compounds as CSF1R inhibitors by measuring the reduction of Alamar Blue reagent by viable cells.
On day one of the experiment, M-NFS-60 cells were maintained in RPMI complete medium (Omega Scientific) plus 10% FBS supplemented with 20 ng/mL of M-CSF (R&D Systems). 96-well TC-treated, flat bottom plates were seeded at 10,000 cell/well at a volume of 100 μL per well. The cells were cultured overnight at 37° C. under 5% CO2.
On day two, compounds were added to the cells at 9 different concentrations, with half-log intervals alongside a control reference compound serving as a positive control. Final DMSO concentration was kept at 0.5% for a final volume of 200 μL. The compounds were allowed to incubate with the cells for 72 hours at 37° C. under 5% CO2.
On day five of the experiment, 40 μl of Alamar Blue reagent was added to each well and allowed to incubate for 3 hours. Alamar Blue fluorescence was read using SoftMax Pro software at 560 nm (excitation) and 590 nm (emission). IC50s were generated as an average of duplicates and represents the concentration of test compound that achieves 50% inhibition of cellular proliferation compared to control.
A general note: Alamar Blue is a resazurin reagent that responds to reducing activity.

The target in assay [4] is kinase panel containing either 359 or 386 distinct kinases. Kind of assay: Competition binding assay, selectivity score (S10) against a panel of kinases. Particulars: compounds at 10 μM; fraction of kinases with percent of control less than 10. As to the method:
Competition binding assays used herein were developed, validated and performed as described in Fabian et al., Nature Biotechnology 2005, 23, 329-336. Kinases were produced as fusions to T7 phage (See, Fabian et al. or WO04/015142) or alternatively, the kinases were expressed in HEK-293 cells and subsequently tagged with DNA for PCR detection (See, WO08/005,310). […] The liganded beads were blocked with excess biotin and washed with blocking buffer (SeaBlock (Pierce), 1% BSA, 0.05% Tween 20, 1 mM DTT) to remove unbound ligand and to reduce non-specific binding. […] Test compounds were prepared as 100× stocks in DMSO and diluted into the aqueous environment. Kds were determined using an eleven point threefold serial dilutions. DMSO or control compounds were was added to control assays lacking a test compound. Primary screen assays were performed in polypropylene 384-well plates in a final volume of 20-40 μL, while Kd determinations were performed in polystyrene 96-well plates in a final volume of […]. […] The kinase concentration in the eluates was measured by quantitative PCR.
A selectivity score (S10) is a quantitative measure of selectivity of a compound against a panel of kinases. An S10 was calculated for a compound by dividing the number of kinases found to have a percent of control (DMSO) less than 10 by the total number of distinct kinases tested (excluding mutant variants). Percent of control (POC) is calculated by subtracting the signal of the control compound
(POC=0) from the signal of the test compound and dividing the outcome by the signal of DMSO (POC=100) minus the signal of the control compound. For the compounds disclosed herein, S10 scores were obtained by testing the compounds at 10 μM concentration in a kinase panel containing either 359 or 386 distinct kinases.

The structures appear in SMILES notation.

T1 sequence (P07333 20-972): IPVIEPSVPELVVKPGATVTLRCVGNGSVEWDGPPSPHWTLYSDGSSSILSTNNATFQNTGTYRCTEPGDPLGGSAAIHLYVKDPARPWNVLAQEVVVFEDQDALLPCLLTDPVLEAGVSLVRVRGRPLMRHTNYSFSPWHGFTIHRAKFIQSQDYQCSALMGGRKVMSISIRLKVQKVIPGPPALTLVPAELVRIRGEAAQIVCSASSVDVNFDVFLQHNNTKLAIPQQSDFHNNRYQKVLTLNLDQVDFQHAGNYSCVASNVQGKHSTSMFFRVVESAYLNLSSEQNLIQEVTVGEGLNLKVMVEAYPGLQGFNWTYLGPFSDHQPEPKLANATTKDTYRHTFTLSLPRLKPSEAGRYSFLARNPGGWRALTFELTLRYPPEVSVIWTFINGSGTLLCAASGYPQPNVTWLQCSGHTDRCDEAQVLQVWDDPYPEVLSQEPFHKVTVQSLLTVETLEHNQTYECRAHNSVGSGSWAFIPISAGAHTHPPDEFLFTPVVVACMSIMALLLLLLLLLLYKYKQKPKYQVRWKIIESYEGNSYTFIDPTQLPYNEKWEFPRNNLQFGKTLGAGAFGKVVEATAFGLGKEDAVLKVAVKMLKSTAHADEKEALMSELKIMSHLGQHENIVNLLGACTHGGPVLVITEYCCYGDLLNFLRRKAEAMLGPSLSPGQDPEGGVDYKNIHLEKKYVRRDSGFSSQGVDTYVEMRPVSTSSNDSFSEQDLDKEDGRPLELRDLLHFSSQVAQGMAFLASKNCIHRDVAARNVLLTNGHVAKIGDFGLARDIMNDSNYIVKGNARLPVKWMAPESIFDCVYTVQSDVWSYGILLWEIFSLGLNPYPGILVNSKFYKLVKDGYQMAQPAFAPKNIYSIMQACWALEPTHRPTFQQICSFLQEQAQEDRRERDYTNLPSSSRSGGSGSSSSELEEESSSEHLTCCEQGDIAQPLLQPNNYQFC

For the molecule `CCN(CC)Cc1ccnc(C(=O)Nc2ccc(NC(=O)Nc3cc(C(C)(C)C)on3)cc2)c1`, the Kd in assay [1] and in assay [2] was 3 to 10 nM each time. Besides, the IC50 in assay [3] lay in the range of 250 to 1000 nM. In addition, the “Kinase Specificity (S10)” value in assay [4] was “A (A ≦ 0.03)”.
In the case of `CC(C)(C)c1cc(NC(=O)Nc2ccc(NC(=O)c3cccc(OC4CCNCC4)n3)cc2)no1`, the dissociation constant Kd in assay [1] and in assay [2] was more than 10 nM in each case. For the same molecule, in assay [3], the IC50 is more than 1000 nM. Further, the “Kinase Specificity (S10)” value in assay [4] was “B (0.03 < B ≦ 0.05)”.
As for `CN1CCC(Oc2ccc(C(=O)Nc3ccc(NC(=O)Nc4cc(C(C)(CF)CF)on4)cc3)nc2)CC1`, the Kd in assay [1] and in assay [2] was less than 3 nM throughout. The IC50 in assay [3] is not above 100 nM. Further, the “Kinase Specificity (S10)” value in assay [4] is “B (0.03 < B ≦ 0.05)”.
As to `CCN(CC)Cc1cccc(C(=O)Nc2ccc(NC(=O)Nc3cc(C(C)(C)C)on3)cc2)n1`, the Kd in assay [1] and in assay [2] was more than 10 nM in each case. Also, in assay [3], the IC50 is more than 1000 nM. In addition, in assay [4], the “Kinase Specificity (S10)” value is “A (A ≦ 0.03)”.
In the case of `CC(CF)(CF)c1cc(NC(=O)Nc2ccc(NC(=O)c3ccc(OC4CCN(CC(F)(F)F)CC4)cn3)cc2)no1`, the Kd in assay [1] and in assay [2] was less than 3 nM throughout. Moreover, the IC50 in assay [3] is 100 to 250 nM. Further, in assay [4], the “Kinase Specificity (S10)” value was “A (A ≦ 0.03)”.
Consider `CN1CCN(c2ccnc(C(=O)Nc3ccc(NC(=O)Nc4cc(C(C)(C)C)on4)cc3)c2)CC1`, for which the Kd in assay [1] and in assay [2] was 3 to 10 nM throughout. In addition, the IC50 in assay [3] fell in the range of 100 to 250 nM. The “Kinase Specificity (S10)” value in assay [4] is given as “B (0.03 < B ≦ 0.05)”.
As for `CC(C)(C)c1cc(NC(=O)Nc2ccc(NC(=O)c3cccc(CN4CCOCC4)n3)cc2)no1`, the Kd in assay [1] and in assay [2] was more than 10 nM in each case. In addition, the IC50 in assay [3] is more than 1000 nM. Also, the “Kinase Specificity (S10)” value in assay [4] is reported as “B (0.03 < B ≦ 0.05)”.
Regarding `CN1CCN(c2cccc(C(=O)Nc3ccc(NC(=O)Nc4cc(C(C)(C)C)on4)cc3)n2)CC1`, the dissociation constant Kd in assay [1] and in assay [2] was 3 to 10 nM throughout. For the same molecule, in assay [3], the IC50 is more than 1000 nM. Also, the “Kinase Specificity (S10)” value in assay [4] is reported as “B (0.03 < B ≦ 0.05)”.
For the molecule `CCN1CCC(Oc2ccc(C(=O)N[C@H]3CC[C@H](NC(=O)Nc4cc(C(C)(C)C)on4)CC3)nc2)CC1`, the Kd in assay [1] and in assay [2] was 3 to 10 nM in each case. Moreover, the IC50 in assay [3] was in the range of 250 to 1000 nM. Moreover, the “Kinase Specificity (S10)” value in assay [4] is on record as “A (A ≦ 0.03)”.
On to `CC(C)(C)c1cc(NC(=O)N[C@H]2CC[C@H](NC(=O)c3ccc(OC4CCNCC4)cn3)CC2)no1`, for which the equilibrium dissociation constant (Kd) in assay [1] and in assay [2] was 3 to 10 nM each time. For the same molecule, in assay [3], the IC50 is more than 1000 nM. In addition, the “Kinase Specificity (S10)” value in assay [4] was “A (A ≦ 0.03)”.
On to `CC(C)(C)OC(=O)N1CCC(Oc2ccc(C(=O)N[C@H]3CC[C@H](NC(=O)Nc4cc(C(C)(C)C)on4)CC3)nc2)CC1`, for which the Kd is more than 10 nM in assay [1] and 3 to 10 nM in assay [2]. Moreover, the IC50 in assay [3] was in the range of 250 to 1000 nM. In addition, the “Kinase Specificity (S10)” value in assay [4] is on record as “A (A ≦ 0.03)”.
As for `CN1CCC(Oc2ccnc(C(=O)Nc3ccc(NC(=O)Nc4cc(C(C)(C)C)on4)cc3)c2)CC1`, the Kd in assay [1] and in assay [2] was 3 to 10 nM in each case. Moreover, the IC50 in assay [3] lay within 250 to 1000 nM. Also, the “Kinase Specificity (S10)” value in assay [4] is listed as “B (0.03 < B ≦ 0.05)”.
Turning to `CCN1CCC(Oc2ccc(C(=O)Nc3ccc(NC(=O)Nc4cc(C(C)(CF)CF)on4)cc3)nc2)CC1`, the dissociation constant Kd in assay [1] and in assay [2] was less than 3 nM each time. For the same molecule, in assay [3], the IC50 was not above 100 nM. Also, in assay [4], the “Kinase Specificity (S10)” value is on record as “B (0.03 < B ≦ 0.05)”.
On to `CC(C)(C)c1cc(NC(=O)Nc2ccc(NC(=O)c3ccc(CC4CCNCC4)cn3)cc2)no1`, for which the Kd in assay [1] and in assay [2] was less than 3 nM each time. Moreover, in assay [3], the IC50 lay within 100 to 250 nM. Besides, in assay [4], the “Kinase Specificity (S10)” value is on record as “A (A ≦ 0.03)”.
Consider `CC(C)(C)c1cc(NC(=O)Nc2ccc(NC(=O)c3ccc(CN4CCOCC4)cn3)cc2)no1`, for which the Kd in assay [1] and in assay [2] was 3 to 10 nM in each case. Also, the IC50 in assay [3] lay within 100 to 250 nM. The “Kinase Specificity (S10)” value in assay [4] is reported as “A (A ≦ 0.03)”.
For `CN1CCC(c2ccc(C(=O)Nc3ccc(NC(=O)Nc4cc(C(C)(C)C)on4)cc3)nc2)CC1`, the equilibrium dissociation constant (Kd) in assay [1] and in assay [2] was 3 to 10 nM throughout. Besides, in assay [3], the IC50 is not above 100 nM. The “Kinase Specificity (S10)” value in assay [4] was “B (0.03 < B ≦ 0.05)”.
As to `CC(C)(C)c1cc(NC(=O)Nc2ccc(NC(=O)c3cccc(OCCN4CCOCC4)n3)cc2)no1`, the equilibrium dissociation constant (Kd) in assay [1] and in assay [2] was more than 10 nM throughout. The IC50 in assay [3] is more than 1000 nM. Further, the “Kinase Specificity (S10)” value in assay [4] is “A (A ≦ 0.03)”.

Usually Kd stands for the concentration at which binding is half-saturated. A higher Kd goes with a looser complex.

The values are drawn from patent US9296722B2, “Azolyl urea compounds and methods of use thereof” (Ambit Biosciences Corporation, priority 2010, dated 2016).
